Laboratory results published in patent US9012428B2, “Uracyl spirooxetane nucleoside phosphoramidates” (Janssen Products, LP, priority 2010, dated 2015).

Key:
HCV type 1b replicon = assay: HCV replicon assay (Huh-Luc, luciferase readout); format: cell-based; conditions: Hepatitis C virus, 72 h; Huh-Luc replicon cells, three days incubation, luciferase activity
Experimental: (§1) The in vitro antiviral activity against HCV of the compound of formula I was tested in a cellular HCV replicon system based on Lohmann et al. (1999) Science 285:110-113, with the further modifications described by Krieger et al. (2001) Journal of Virology 75: 4614-4624 (incorporated herein by reference), which is further exemplified in the examples section. This model, while not a complete infection model for HCV, is widely accepted as the most robust and efficient model of autonomous HCV RNA replication currently available. It will be appreciated that it is important to distinguish between compounds that specifically interfere with HCV functions from those that exert cytotoxic or cytostatic effects in the HCV replicon model, and as a consequence cause a decrease in HCV RNA or linked reporter enzyme concentration. […]
The replicon cells were plated in 384-well plates in the presence of the test and control compounds which were added in various concentrations. Following an incubation of three days, HCV replication was measured by assaying luciferase activity (using standard luciferase assay substrates and reagents and a Perkin Elmer ViewLux™ ultraHTS microplate imager). […] The inhibitory activity of the compound on luciferase activity was monitored on the Huh-Luc cells, enabling a dose-response curve for the test compound. […]

[1] = Cytotoxicity in Huh-7 cells; format: cell-based; conditions: human
Experimental: as §1, with “concentration. Assays are known in the field for the evaluation of cellular cytotoxicity based for example on the activity of mitochondrial enzymes using fluorogenic redox dyes such as resazurin. Furthermore, cellular counter screens exist for the evaluation of non-selective inhibition of linked reporter gene activity, such as firefly luciferase.” for “concentration.”

HIV = conditions: literature report; cited from earlier work

CCCCOC(=O)[C@H](C)N[P@](=O)(OC[C@H]1O[C@@H](n2ccc(=O)[nH]c2=O)[C@@]2(CCO2)[C@@H]1O)Oc1ccccc1 [Compound P1, butyl N—[(S)-{[(4R,5R,7R,8R)-5-(2,4-dioxo-3,4-dihydro-pyrimidin-1(2H)-yl)-8-hydroxy-1,6-dioxaspiro[3.4]oct-7-yl]methoxy}(phenoxy)-phosphoryl]-L-alaninate]
EC50 (HCV type 1b replicon): 2.51 µM | CC50 [1]: > 98 µM

Cc1cn([C@@H]2O[C@H](CO)[C@@H](O)[C@]23CCO3)c(=O)[nH]c1=O [1-(2-O,2-C-ethano-β-D-ribofuranosyl)thymine]
activity against HIV (HIV): no activity was found

O=c1ccn([C@@H]2O[C@H](CO)[C@@H](O)[C@]23CCO3)c(=O)[nH]1 [1-(2-O,2-C-ethano-β-D-ribofuranosyl)uracil]
activity against HIV (HIV): no activity was found
